Measured values published in patent publication US20020132801A1, “Drospirenone for hormone replacement therapy” (Schering Aktiengesellschaft, priority 2001, published 2002).

Tests used:
Assay type in all cases: physicochemical
[1] = Solubility in water and aqueous buffers; conditions: water and aqueous buffers at various pH values
[2] = Chemical stability under acid and alkaline conditions
[3] = In vitro dissolution from tablet, USP XXIII Paddle Method; conditions: drospirenone in micronized form in a pharmaceutical composition; rapid dissolution defined as at least 70% over about 30 minutes from 3 mg tablet in 900 ml water at 37° C., 50 rpm
Experimental: A micronized substance is such that a test batch (ca. 200 mg) of the particles, herein drospirenone particles, has a surface area of more than 10,000 cm^2/g, and has the following particle size distribution for drospirenone as determined under the microscope: not more than 2 particles in a given batch (ca. 200 mg) with a diameter of more than 30 μm, and preferably ≦20 particles with a diameter of ≧10 μm and ≦30 μm.

solubility [1]: sparingly soluble | stability under acid conditions ([2]; acid conditions): rearranged to an inactive isomer | stability under alkaline conditions ([2]; alkaline conditions): hydrolysed | in vitro dissolution of active compound from composition [3]: rapid dissolution
SMILES: C[C@]12CCC(=O)C=C1[C@@H]1C[C@@H]1[C@H]1[C@@H]3[C@@H]4C[C@@H]4[C@@]4(CCC(=O)O4)[C@@]3(C)CC[C@@H]12 [drospirenone, 6β,7β;15β;16β-dimethylene-3-oxo-17α-preg-4-ene-21,17-carbolactone]
